Values belong to the compound of their own block, whether it stands above or below them.
Columns and labels:
Plasminogen [1] = target: T1, Plasminogen (Homo sapiens, UniProt P00747); test: Rate constant of deacylation for plasmin; Fast and could not be measured
Prothrombin [2] = target: T2, Prothrombin (Homo sapiens, UniProt P00734); test: Rate constant of deacylation for thrombin
[3] = target: T3, Urokinase-type plasminogen activator (Homo sapiens, UniProt P00749); test: Rate constant of deacylation for Urokinase-type plasminogen activator
Plasminogen [4] = target: T1, Plasminogen
Plasminogen [5] = target: T1, Plasminogen; remark: listed apart in the source
Plasminogen [6] = target: T1, Plasminogen; remark: listed apart in the source
Description: Binding constant on plasmin was determined at 30 percent and at 82 minutes for maximum inhibition and no enzyme activity was recovered over the 2 h-time

[7] = target: T3, Urokinase-type plasminogen activator
Prothrombin [8] = target: T2, Prothrombin
Prothrombin [9] = target: T2, Prothrombin; remark: listed apart in the source
Prothrombin [10] = target: T2, Prothrombin; remark: listed apart in the source
[11] = target: T3, Urokinase-type plasminogen activator; remark: listed apart in the source
[12] = target: T3, Urokinase-type plasminogen activator; remark: listed apart in the source
Description: Specificity constant on Urokinase-type plasminogen activator was determined at 0 percent and at 91 minutes for maximum inhibition and no enzyme activity was recovered over the 2 h-time

[13] = target: T4, Neutrophil elastase (Homo sapiens) (UniProt P08246); test: Specificity constant on human neutrophil elastase was determined at 90 percent and at 93 minutes for maximum inhibition and no enzyme activity was recovered over the 2 h-time
T4 sequence (whole entry): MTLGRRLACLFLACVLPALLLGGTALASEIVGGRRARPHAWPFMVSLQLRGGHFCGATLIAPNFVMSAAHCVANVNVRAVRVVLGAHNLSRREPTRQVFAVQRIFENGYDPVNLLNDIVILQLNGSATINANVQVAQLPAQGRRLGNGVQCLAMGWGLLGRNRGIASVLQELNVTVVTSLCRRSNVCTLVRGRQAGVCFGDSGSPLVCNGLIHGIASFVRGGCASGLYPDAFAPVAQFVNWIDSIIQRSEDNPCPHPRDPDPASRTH

[14] = target: T4, Neutrophil elastase (Homo sapiens); test: Rate constant of acylation on human neutrophil elastase was determined at 90 percent and at 93 minutes for maximum inhibition and no enzyme activity was recovered over the 2 h-time
[15] = target: T4, Neutrophil elastase (Homo sapiens); test: Binding constant on human neutrophil elastase was determined at 90 percent and at 93 minutes for maximum inhibition and no enzyme activity was recovered over the 2 h-time
[16] = target: T5, Chymotrypsin-like elastase family member 2A (Sus scrofa) (UniProt P08419); test: Rate constant of acylation on porcine pancreatic elastase was determined at 30 percent and at 99 minutes for maximum inhibition and no enzyme activity was recovered over the 2 h-time
T5 sequence (whole entry): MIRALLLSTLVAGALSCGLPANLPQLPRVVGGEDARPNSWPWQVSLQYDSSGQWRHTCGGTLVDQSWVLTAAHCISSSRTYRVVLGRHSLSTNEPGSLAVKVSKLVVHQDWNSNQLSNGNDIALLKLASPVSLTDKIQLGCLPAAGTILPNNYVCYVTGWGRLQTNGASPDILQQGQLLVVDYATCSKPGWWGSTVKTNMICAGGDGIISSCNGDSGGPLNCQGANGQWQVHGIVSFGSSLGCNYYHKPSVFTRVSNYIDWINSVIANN

[17] = target: T5, Chymotrypsin-like elastase family member 2A (Sus scrofa); test: Specificity constant on porcine pancreatic elastase was determined at 30 percent and at 99 minutes for maximum inhibition and no enzyme activity was recovered over the 2 h-time
Serine protease 1 [18] = target: T6, Serine protease 1 (Homo sapiens, UniProt P07477); test: Binding constant on trypsin was determined at 10 percent and at 95 minutes for maximum inhibition and no enzyme activity was recovered over the 2 h-time
T6 sequence (P07477 whole entry): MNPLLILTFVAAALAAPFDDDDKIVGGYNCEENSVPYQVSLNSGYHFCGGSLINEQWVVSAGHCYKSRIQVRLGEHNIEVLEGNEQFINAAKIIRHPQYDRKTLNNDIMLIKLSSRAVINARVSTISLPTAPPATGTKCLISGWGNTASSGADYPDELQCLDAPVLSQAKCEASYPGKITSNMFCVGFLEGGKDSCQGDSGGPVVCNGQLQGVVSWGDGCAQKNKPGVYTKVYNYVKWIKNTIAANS

Serine protease 1 [19] = target: T6, Serine protease 1; test: Rate constant of acylation on trypsin was determined at 10 percent and at 95 minutes for maximum inhibition and no enzyme activity was recovered over the 2 h-time
[20] = target: Chymotrypsinogen A (Bos taurus) (UniProt P00766); test: Specificity constant on alpha-chymotrypsin was determined at 10 percent and at 99 minutes for maximum inhibition and no enzyme activity was recovered over the 2 h-time
Serine protease 1 [21] = target: T6, Serine protease 1; test: Specificity constant on trypsin was determined at 10 percent and at 95 minutes for maximum inhibition and no enzyme activity was recovered over the 2 h-time
[22] = target: Chymotrypsinogen A (Bos taurus) (UniProt P00766); test: Binding constant on alpha-chymotrypsin was determined at 10 percent and at 99 minutes for maximum inhibition and no enzyme activity was recovered over the 2 h-time
[23] = target: Chymotrypsinogen A (Bos taurus) (UniProt P00766); test: Rate constant of acylation on alpha-chymotrypsin was determined at 10 percent and at 99 minutes for maximum inhibition and no enzyme activity was recovered over the 2 h-time
[24] = target: T5, Chymotrypsin-like elastase family member 2A (Sus scrofa); test: Binding constant on porcine pancreatic elastase was determined at 30 percent and at 99 minutes for maximum inhibition and no enzyme activity was recovered over the 2 h-time
[25] = target: T4, Neutrophil elastase (Homo sapiens); test: Specificity constant on human neutrophil elastase was determined at 30 percent and at 35 minutes for maximum inhibition with 0 minutes persistence of inhibition
[26] = target: T4, Neutrophil elastase (Homo sapiens); test: Rate constant of acylation on human neutrophil elastase was determined at 30 percent and at 35 minutes for maximum inhibition with 0 minutes persistence of inhibition
[27] = target: T4, Neutrophil elastase (Homo sapiens); test: Binding constant on human neutrophil elastase was determined at 30 percent and at 35 minutes for maximum inhibition with 0 minutes persistence of inhibition
[28] = target: T5, Chymotrypsin-like elastase family member 2A (Sus scrofa); test: Specificity constant on porcine pancreatic elastase was determined at 10 percent and at 78 minutes for maximum inhibition and no enzyme activity was recovered over the 2 h-time
[29] = target: T5, Chymotrypsin-like elastase family member 2A (Sus scrofa); test: Binding constant on porcine pancreatic elastase was determined at 10 percent and at 78 minutes for maximum inhibition and no enzyme activity was recovered over the 2 h-time
[30] = target: T5, Chymotrypsin-like elastase family member 2A (Sus scrofa); test: Rate constant of acylation on porcine pancreatic elastase was determined at 10 percent and at 78 minutes for maximum inhibition and no enzyme activity was recovered over the 2 h-time
[31] = target: T4, Neutrophil elastase (Homo sapiens); test: Specificity constant on human neutrophil elastase was determined at 20 percent and at 99 minutes for maximum inhibition and no enzyme activity was recovered over the 2 h-time
[32] = target: T4, Neutrophil elastase (Homo sapiens); test: Rate constant of acylation on human neutrophil elastase was determined at 20 percent and at 99 minutes for maximum inhibition and no enzyme activity was recovered over the 2 h-time
[33] = target: T4, Neutrophil elastase (Homo sapiens); test: Binding constant on human neutrophil elastase was determined at 20 percent and at 99 minutes for maximum inhibition and no enzyme activity was recovered over the 2 h-time
Serine protease 1 [34] = target: T6, Serine protease 1; test: Binding constant on trypsin was determined
Serine protease 1 [35] = target: T6, Serine protease 1; test: Rate constant of acylation on trypsin was determined
Serine protease 1 [36] = target: T6, Serine protease 1; test: Specificity constant on trypsin was determined
[37] = target: Chymotrypsinogen A (Bos taurus) (UniProt P00766); test: Binding constant on alpha-chymotrypsin was determined
[38] = target: Chymotrypsinogen A (Bos taurus) (UniProt P00766); test: Rate constant of acylation on alpha-chymotrypsin was determined
[39] = target: Chymotrypsinogen A (Bos taurus) (UniProt P00766); test: Specificity constant on alpha-chymotrypsin was determined
[40] = target: T4, Neutrophil elastase (Homo sapiens); test: Specificity constant on human neutrophil elastase was determined at 48 percent and at 60 minutes for maximum inhibition and with 0 minutes persistence of inhibition
[41] = target: T4, Neutrophil elastase (Homo sapiens); test: Rate constant of acylation on human neutrophil elastase was determined at 48 percent and at 60 minutes for maximum inhibition with 0 minutes persistence of inhibition
[42] = target: T4, Neutrophil elastase (Homo sapiens); test: Binding constant on human neutrophil elastase was determined at 48 percent and at 60 minutes for maximum inhibition with 0 minutes persistence of inhibition
[43] = target: T5, Chymotrypsin-like elastase family member 2A (Sus scrofa); test: Rate constant of acylation on porcine pancreatic elastase was determined at 42 percent and at 55 minutes for maximum inhibition and no enzyme activity was recovered over the 2 h-time
[44] = target: T5, Chymotrypsin-like elastase family member 2A (Sus scrofa); test: Specificity constant on porcine pancreatic elastase was determined at 42 percent and at 55 minutes for maximum inhibition and no enzyme activity was recovered over the 2 h-time
[45] = target: T5, Chymotrypsin-like elastase family member 2A (Sus scrofa); test: Binding constant on porcine pancreatic elastase was determined at 42 percent and at 55 minutes for maximum inhibition and no enzyme activity was recovered over the 2 h-time

T1 sequence (P00747 97-580 limits assumed): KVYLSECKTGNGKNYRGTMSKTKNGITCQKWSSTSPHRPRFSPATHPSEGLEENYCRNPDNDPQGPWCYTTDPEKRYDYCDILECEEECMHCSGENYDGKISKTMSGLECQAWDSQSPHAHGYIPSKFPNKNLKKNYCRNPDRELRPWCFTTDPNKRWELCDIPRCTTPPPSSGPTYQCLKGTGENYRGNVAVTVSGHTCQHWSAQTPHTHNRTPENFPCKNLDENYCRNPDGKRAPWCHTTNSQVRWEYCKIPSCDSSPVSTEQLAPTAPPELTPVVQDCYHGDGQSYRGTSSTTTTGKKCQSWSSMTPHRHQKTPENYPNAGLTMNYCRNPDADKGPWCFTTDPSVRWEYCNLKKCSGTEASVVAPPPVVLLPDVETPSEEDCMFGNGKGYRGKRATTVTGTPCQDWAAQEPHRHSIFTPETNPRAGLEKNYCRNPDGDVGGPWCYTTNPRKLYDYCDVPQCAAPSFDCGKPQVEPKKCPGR
T1 sequence (P00747 581-810 limits assumed): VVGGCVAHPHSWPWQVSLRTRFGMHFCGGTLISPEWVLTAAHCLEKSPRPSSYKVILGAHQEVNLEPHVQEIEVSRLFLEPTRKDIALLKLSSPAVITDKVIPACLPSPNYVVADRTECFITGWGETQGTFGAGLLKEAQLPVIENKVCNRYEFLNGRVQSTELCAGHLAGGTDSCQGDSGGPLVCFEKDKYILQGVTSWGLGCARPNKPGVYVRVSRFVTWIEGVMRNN

Kd (Plasminogen [1]): Not measurable
Kd (Prothrombin [2]): 0.0001 s⁻¹
Kd [3]: 0.000733 s⁻¹
ka/Ki (Plasminogen [4]): 2000 M⁻¹ s⁻¹
ka (Plasminogen [5]): 57 min⁻¹
Ks/i (Plasminogen [6]): 466 µM
Ks/i [7]: 0.35 µM
Ks/i (Prothrombin [8]): 37.9 µM
ka (Prothrombin [9]): 5.58 min⁻¹
ka/Ki (Prothrombin [10]): 2500 M⁻¹ s⁻¹
ka [11]: 9.8 min⁻¹
ka/Ki [12]: 467000 M⁻¹ s⁻¹
SMILES: C=C1CCC(c2ccc(CNC(=N)N)cc2)C(=O)O1 (stereo not drawn)

ka/Ki [31]: 37500 M⁻¹ s⁻¹
ka [32]: 0.18 min⁻¹
Ks/i [33]: 0.08 µM
ka [16]: 0.28 min⁻¹
ka/Ki [17]: 83.3 M⁻¹ s⁻¹
Ks/i (Serine protease 1 [34]): 65 µM
ka (Serine protease 1 [35]): 2.4 min⁻¹
ka/Ki (Serine protease 1 [36]): 667 M⁻¹ s⁻¹
Ks/i [37]: 2.3 µM
ka [38]: 1.6 min⁻¹
ka/Ki [39]: 11700 M⁻¹ s⁻¹
Ks/i [24]: 58.8 µM
SMILES: CC(C)C1CC/C(=C/Br)OC1=O (stereo not drawn)

The next lines start with the compound.

SMILES: CC(C)C1CC/C(=C\Br)OC1=O (stereo not drawn)
ka/Ki [13]: 14500 M⁻¹ s⁻¹
ka [14]: 0.67 min⁻¹
Ks/i [15]: 0.77 µM
ka [16]: 0.52 min⁻¹
ka/Ki [17]: 333 M⁻¹ s⁻¹
Ks/i (Serine protease 1 [18]): 44 µM
ka (Serine protease 1 [19]): 1.8 min⁻¹
ka/Ki [20]: 10000 M⁻¹ s⁻¹
ka/Ki (Serine protease 1 [21]): 667 M⁻¹ s⁻¹
Ks/i [22]: 9.8 µM
ka [23]: 6 min⁻¹
Ks/i [24]: 26.9 µM

SMILES: CC1CC(=O)O/C(=C/Br)C1 (stereo not drawn)
ka/Ki [25]: 333 M⁻¹ s⁻¹
ka [26]: 0.48 min⁻¹
Ks/i [27]: 22.6 µM
ka/Ki [28]: 16.7 M⁻¹ s⁻¹
Ks/i [29]: 216 µM
ka [30]: 0.33 min⁻¹

SMILES: C=C1CC(C)(C)CC(=O)O1
ka/Ki [40]: 333 M⁻¹ s⁻¹
ka [41]: 0.77 min⁻¹
Ks/i [42]: 43.3 µM
ka [43]: 0.51 min⁻¹
ka/Ki [44]: 83.3 M⁻¹ s⁻¹
Ks/i [45]: 104 µM

Source: ChEMBL document CHEMBL1126229, “Enol lactone derivatives as inhibitors of human neutrophil elastase and trypsin-like proteases” (Bioorg Med Chem Lett, 1992)
